Results taken from PubChem BioAssay AID256 (DTP/NCI, 2004).
Toxic doses and inconclusive results are not listed.

Tested on: CD2F1 mice, L1210 leukemia ip, survival T/C
Experiment: NCI In Vivo Anticancer Drug Screen. Data for tumor model L1210 Leukemia (intraperitoneal) in CD2F1 (CDF1) mice
Conditions: endpoint: mean survival time, higher = longer survival
Summary of the method: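 In this screen, transplantable tumors were grown in mice given either the compound or its vehicle. Results were expressed as the treated measurement relative to the control measurement.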

[1] = dose: 100.0 mg/kg/injection, schedule: Q01DX001 (ip), vehicle: saline
[2] = dose: 200.0 mg/kg/injection, schedule: Q01DX001 (ip), vehicle: saline
[3] = dose: 400.0 mg/kg/injection, schedule: Q01DX001 (ip), vehicle: saline
[4] = dose: 100.0 mg/kg/injection, schedule: Q01DX001 (ip), vehicle: saline with Tween-80
[5] = dose: 400.0 mg/kg/injection, schedule: Q01DX001 (ip), vehicle: saline with Tween-80
[6] = dose: 100.0 mg/kg/injection, schedule: Q04DX003 (ip), vehicle: saline
[7] = dose: 200.0 mg/kg/injection, schedule: Q04DX003 (ip), vehicle: saline
[8] = dose: 400.0 mg/kg/injection, schedule: Q04DX003 (ip), vehicle: saline

CC(O)C(O)C(O)C(O)CO (centres undefined) (tested in a mixture with another compound)
T/C (dose: 75.0 mg/kg/injection, schedule: Q01DX001 (ip), vehicle: saline with Tween-80): 87 % of control
T/C (dose: 150.0 mg/kg/injection, schedule: Q01DX001 (ip), vehicle: saline with Tween-80): 93 % of control
T/C (dose: 300.0 mg/kg/injection, schedule: Q01DX001 (ip), vehicle: saline with Tween-80): 86 % of control

O=P(O)(O)OCC(O)CO.[NH-]C1CCCCC1[NH-].[Pt+2] (centres undefined)
T/C (dose: 1.17 mg/kg/injection, schedule: Q04DX003 (ip), vehicle: other): 115 % of control
T/C (dose: 9.38 mg/kg/injection, schedule: Q04DX003 (ip), vehicle: other): 231 % of control
T/C (dose: 18.75 mg/kg/injection, schedule: Q04DX003 (ip), vehicle: other): 186 % of control
T/C (dose: 37.5 mg/kg/injection, schedule: Q04DX003 (ip), vehicle: other): 104 % of control

COC1CC(C)OC(OC2C(C)/C=C/C(=O)OC(C)C(COC3OC(C)C(O)C(OC)C3OC)C3OC3/C=C/C(=O)C(C)(O)CC2C)C1O (centres undefined)
T/C (dose: 125.0 mg/kg/injection, schedule: Q01DX001 (ip), vehicle: saline sonified): 100 % of control
T/C (dose: 250.0 mg/kg/injection, schedule: Q01DX001 (ip), vehicle: saline sonified): 101 % of control
T/C (dose: 500.0 mg/kg/injection, schedule: Q01DX001 (ip), vehicle: saline sonified): 95 % of control

CN(C)CCOC(=O)COc1ccc(Cl)cc1
T/C [1]: 97 % of control
T/C [2]: 100 % of control
T/C [3]: 94 % of control

CCOC(=O)C1(C(=O)OCC)CCC(O)N1C(=O)Cc1ccccc1[N+](=O)[O-] (centres undefined)
T/C (dose: 100.0 mg/kg/injection, schedule: Q01DX009 (ip), vehicle: Klucel (hydroxypropylcellulose) (HPC)): 101 % of control
T/C (dose: 200.0 mg/kg/injection, schedule: Q01DX009 (ip), vehicle: Klucel (hydroxypropylcellulose) (HPC)): 97 % of control

c1cc2c3c(cccc3c1)C1C2C2c3cccc4cccc(c34)C12 (centres undefined)
T/C [4]: 93 % of control
T/C (dose: 200.0 mg/kg/injection, schedule: Q01DX001 (ip), vehicle: saline with Tween-80): 97 % of control
T/C [5]: 100 % of control

CC(=O)NCCCN1CCOCC1
T/C [6]: 96 % of control
T/C [7]: 104 % of control
T/C [8]: 98 % of control

Cc1ccc(-c2csc(/N=C/c3ccccc3O)n2)cc1.Cc1ccc(-c2csc(/N=C/c3ccccc3O)n2)cc1.[Cu]
T/C (dose: 25.0 mg/kg/injection, schedule: Q01DX001 (ip), vehicle: saline): 91 % of control
T/C (dose: 50.0 mg/kg/injection, schedule: Q01DX001 (ip), vehicle: saline): 96 % of control
T/C [4]: 86 % of control
T/C [1]: 87 % of control
T/C [5]: 93 % of control

O=S(=O)(Cl)c1ccc(F)cc1
T/C [1]: 106 % of control
T/C [6]: 101 % of control
T/C [2]: 109 % of control
T/C [7]: 102 % of control
T/C [3]: 103 % of control
T/C [8]: 98 % of control

CC/C(=N\[N+](C)(C)C)c1ccccc1
T/C (dose: 18.8 mg/kg/injection, schedule: Q01DX009 (ip), vehicle: saline): 96 % of control
T/C (dose: 37.5 mg/kg/injection, schedule: Q01DX009 (ip), vehicle: saline): 91 % of control

S=c1[nH]c2ccccc2n1CCc1ccncc1
T/C (dose: 100.0 mg/kg/injection, schedule: Q#A X016 (ip), vehicle: saline): 108 % of control
T/C (dose: 200.0 mg/kg/injection, schedule: Q#A X016 (ip), vehicle: saline): 95 % of control
T/C (dose: 400.0 mg/kg/injection, schedule: Q## X016 (ip), vehicle: saline): 102 % of control
T/C (dose: 400.0 mg/kg/injection, schedule: Q#A X016 (ip), vehicle: saline): 98 % of control
T/C (dose: 800.0 mg/kg/injection, schedule: Q## X016 (ip), vehicle: saline): 100 % of control
T/C (dose: 1600.0 mg/kg/injection, schedule: Q## X016 (ip), vehicle: saline): 100 % of control

COc1ncnc2c1c(C#N)cn2C1OC(CO)C(O)C1O (centres undefined)
T/C (dose: 6.25 mg/kg/injection, schedule: Q01DX009 (ip), vehicle: saline): 117 % of control
T/C (dose: 25.0 mg/kg/injection, schedule: Q01DX009 (ip), vehicle: saline): 109 % of control
T/C (dose: 50.0 mg/kg/injection, schedule: Q01DX009 (ip), vehicle: saline): 124 % of control
T/C (dose: 100.0 mg/kg/injection, schedule: Q01DX009 (ip), vehicle: saline): 91 % of control
